Data published in US8791133B2, “Pyridylvinylpyrazoloquinolines as PAR1 inhibitors” (Sanofi, priority 2010, dated 2014).

Target: T1, PAR1 (Homo sapiens, UniProt P25116)
T1 construct: endogenous in cells; host or cells: washed blood platelets from healthy volunteers
T1 sequence (P25116 22-425): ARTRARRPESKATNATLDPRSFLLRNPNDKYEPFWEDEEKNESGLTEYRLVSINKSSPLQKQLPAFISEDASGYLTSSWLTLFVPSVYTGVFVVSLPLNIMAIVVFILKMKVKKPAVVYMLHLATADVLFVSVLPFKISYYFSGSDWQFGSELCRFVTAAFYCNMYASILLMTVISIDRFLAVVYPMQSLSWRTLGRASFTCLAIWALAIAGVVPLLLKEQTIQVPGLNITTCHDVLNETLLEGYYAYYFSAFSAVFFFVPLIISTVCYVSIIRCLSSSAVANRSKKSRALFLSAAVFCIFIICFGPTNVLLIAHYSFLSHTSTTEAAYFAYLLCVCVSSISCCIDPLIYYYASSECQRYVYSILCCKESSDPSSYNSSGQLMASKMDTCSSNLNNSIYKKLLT
Test: Inhibition of PAR1-mediated platelet aggregation induced by TRAP (thrombin receptor-activating peptide), 96-well format
Assay type: cell-based
Conditions: washed platelets from healthy volunteers; TRAP as agonist; AUC of kinetics at 650 nm, 37° C., 20 minutes
Experimental: PAR1 Determination Method: Inhibition of PAR1-Mediated Platelet Aggregation
The pharmacological testing of the substances took place in platelet aggregation induced by TRAP (thrombin receptor-activating peptide) in 96-well format. For this purpose, blood was taken from healthy volunteers in 20 ml syringes containing 2 ml of 3.13% strength sodium citrate solution. After centrifugation at 150×g for 20 minutes, the platelet-rich plasma (PRP) was separated off and mixed with 1 μl of PGE1 solution (500 μg/ml in ethanol)/ml of PRP. Incubation at RT for 5 minutes was followed by centrifugation at 120×g for 15 minutes to remove the leukocytes. The leukocyte-free PRP was transferred in 5 ml portions into 15 ml PP tubes and centrifuged at 360×g for 15 minutes in order to pellet the platelets. The plasma was then decanted off and the platelet sediment from 5 ml of PRP was resuspended in 1 ml of Tyrode's (120 mM NaCl, 2.6 mM KCl, 12 mM NaHCO3, 0.39 mM NaH2PO4×H2O, 10 mM HEPES, 0.35% BSA (Bovine Serum Albumin), 5.5 mM glucose, pH 7.4) and adjusted with Tyrode's to a platelet count of 3×10^5/microliter (μl). 13 μl of this cell suspension were then mixed with 866 μl of 10 mM CaCl2 solution, and 120 μl thereof were pipetted into each well of a 96-well plate containing 15 μl of the substance to be tested. After incubation at RT in the dark for 30 minutes, 15 μl of a TRAP solution (70-100 μM) were added as agonist, and kinetics were recorded at 650 nm in a SpectraMax 340 at 37° C. for 20 minutes while shaking. The areas under the curves of negative control (Tyrode's/DMSO) and positive control (15 μl of agonist/DMSO) were calculated and the difference was fixed as the 100% value. The substances to be tested were pipetted as serial dilutions in duplicate determination, the AUC was likewise determined for each substance concentration, and the % inhibition of the AUC compared with the control was calculated. On the basis of the % inhibition, the IC50 was calculated by nonlinear regression analysis according to the 4-parameter equation.

IC50 [nM]	Compound
1390	CC(C)C1CC(=O)C2=C(C1)Nc1[nH]nc(C(=O)NCC3CC3)c1C2/C=C/c1ccc(-c2cccc(F)c2)cn1 (mixture of isomers) [Example 10, 4-{(E)-2-[5-(3-Fluorophenyl)pyridin-2-yl]vinyl}-7-isopropyl-5-oxo-4,5,6,7,8,9-hexahydro-1H-pyrazolo[3,4-b]quinoline-3-cyclopropylmethylcarboxamide]
5120	CC1CC(=O)C2=C(C1)Nc1[nH]nc(C(=O)NCC3CC3)c1C2/C=C/c1ccc(-c2cccc(F)c2)cn1 (single isomer, unassigned) [diastereomer 1 from example 13]
1880	CC(C)NC(=O)c1n[nH]c2c1C(/C=C/c1ccc(-c3cccc(F)c3)cn1)C1=C(CC(C)(C)CC1=O)N2 (stereo not shown) [Example 8, 4-{(E)-2-[5-(3-Fluorophenyl)pyridin-2-yl]vinyl}-7,7-dimethyl-5-oxo-4,5,6,7,8,9-hexahydro-1H-pyrazolo[3,4-b]quinoline-3-isopropylcarboxamide]
4230	CC(C)(C)CNC(=O)c1n[nH]c2c1C(/C=C/c1ccc(-c3cccc(F)c3)cn1)C1=C(CC(C)(C)CC1=O)N2 (stereo not shown) [Example 15, 4-{(E)-2-[5-(3-Fluorophenyl)pyridin-2-yl]vinyl}-7,7-dimethyl-5-oxo-4,5,6,7,8,9-hexahydro-1H-pyrazolo[3,4-b]quinoline-3-(2,2-dimethylpropyl)carboxamide]
380	CC(C)(CO)CNC(=O)c1n[nH]c2c1C(C=Cc1ccc(-c3cccc(F)c3)cn1)C1=C(CC3(CCCC3)CC1=O)N2 (stereo not shown) [Example 31]
< 400	O=C1CC2(CCCC2)CC2=C1C(C=Cc1ccc(-c3cccc(F)c3)cn1)c1c(C(=O)NCC3(CO)CCC3)n[nH]c1N2 (stereo not shown) [Example 33]
410	O=C1CC2(CCCC2)CC2=C1[C@H](/C=C/c1ccc(-c3cccc(F)c3)cn1)c1c(C(=O)NCC3(CO)CC3)n[nH]c1N2 [Example 35]
460	CC(C)(CO)CNC(=O)c1n[nH]c2c1C(C=Cc1ccc(-c3cccc(F)c3)cn1)C1=C(CC3(CCC3)CC1=O)N2 (stereo not shown) [Example 36]
710	CN1C2=C(C(=O)CC3(CCCC3)C2)C(/C=C/c2ccc(-c3cccc(F)c3)cn2)c2c(C(=O)NCC(C)(C)C)n[nH]c21 (stereo not shown) [Example 37]
820	O=C1CC2(CCCC2)CC2=C1C(/C=C/c1ccc(-c3cccc(F)c3)cn1)c1c(C(=O)NC[C@H]3C[C@@H](O)C3)n[nH]c1N2 (stereo partly shown) [Example 38]
450	COC(C)(C)CNC(=O)c1n[nH]c2c1C(C=Cc1ccc(-c3cccc(F)c3)cn1)C1=C(CC3(CCCC3)CC1=O)N2 (stereo not shown) [Example 39]
1200	COCCNC(=O)c1n[nH]c2c1C(/C=C/c1ccc(-c3cccc(F)c3)cn1)C1=C(CC3(CCCC3)CC1=O)N2 (stereo not shown) [Example 43]
1500	COCCNC(=O)c1n[nH]c2c1C(/C=C/c1ccc(-c3cccc(F)c3)cn1)C1=C(CC3(CCC3)CC1=O)N2 (stereo not shown) [Example 46]
1400	O=C1CC2(CCCC2)CC2=C1C(/C=C/c1ccc(-c3cccc(F)c3)cn1)c1c(C(=O)NC3CCCC3)n[nH]c1N2 (stereo not shown) [Example 47]
910	CC(C)(CN)CNC(=O)c1n[nH]c2c1C(/C=C/c1ccc(-c3cccc(F)c3)cn1)C1=C(CC3(CCCC3)CC1=O)N2 (stereo not shown) [Example 50]
840	CC1(CNC(=O)c2n[nH]c3c2C(/C=C/c2ccc(-c4cccc(F)c4)cn2)C2=C(CC4(CCCC4)CC2=O)N3)COC1 (stereo not shown) [Example 54]
